In data set [1] the test system is transient unilateral middle cerebral artery occlusion. The note with it: MCAO 90 min.
The nature of data set [2]: Physiological variables in post-treatment MCAO study. Type of data set: in vivo, Sprague-Dawley rats. Here is the method: Next, I examined whether treatment with Tat-NR2B9c could attenuate ischemic neuronal damage in-vivo when given after stroke onset. […] Infarction volume and neurological outcome measurements were performed at times identical to the pre-treatment study. Body temperature, blood pressure and blood gases were monitored throughout the 24 h experiment and maintained equivalent between groups (Table 2).

Data set [3] deals with cortical neuronal cultures. Description: Sublethal stretch injury with or without NMDA, cell death in cortical cultures. Type of data set: cell-based. On the procedure:
[…]. In brief, cerebral cortices from 10 to 12 embryos were incubated for 10 min in 0.05% trypsin-EDTA, dissociated by trituration, and plated on flexible membranes coated with poly-L-ornithine in 6 well plates (Flexcell International Corporation, Hillsborough, N.C.) at a density of 3.25×10^6 cells per well. Plating medium consisted of DMEM supplemented with 10% heat-inactivated horse serum (Gibco) and (in mM) 2 glutamine, 25 glucose, and 26 bicarbonate. The cultures were maintained at 37° C. in a humidified 5% CO2 atmosphere. After 3 days in vitro, growth of non-neuronal cells was halted by a 48 h exposure to 10 μM FDU-solution (5 μM uridine, 5 μM (+)-5-fluor-2′-deoxyuridine). This produces cultures in which >85% of the cells are neurons, based on immunohistochemical staining for glial fibrillary associated protein (exclusive to astrocytes), and for the NMDAR1 subunit (not shown). The cultures were used for experiments after 12-14 days in vitro.
The cultures, grown on silastic membranes as above, were placed in the Flexercell® FX-3000™ Strain Unit (Flexcell Int., Inc.), a computer-driven instrument that uses a vacuum pulse to deform the culture substrate. In all experiments, the cortical cultures were stretched to 130% of their original length for 1 s, inducing a sublethal injury as recently characterized by us (Arundine et al., 2003). The stretched neurons maintained cell membrane integrity, viability, and electrophysiological function.
Cell death was determined by serial quantitative measurements of propidium iodide (PI) fluorescence using a multiwell plate fluorescence scanner (Cytofluor II, PerSeptive Biosytems, Framingham, Mass., USA) as described previously (Sattler et al., 1997; Sattler et al., 1998). In brief, the culture medium in each tissue culture well was replaced with control solution containing 50 μg/ml PI, and a baseline fluorescence reading was taken. Sequential readings were then taken at appropriate intervals over the 20 h observation period. The fraction of dead cells in each culture at a given time was calculated as: Fraction dead=(Ft−Fo)/FNMDA Where Ft=PI fluorescence at time t, F0=initial PI fluorescence at time zero and FNMDA=background subtracted PI fluorescence of identical cultures from the same dissection and plating, 20-24 h after a 60 min exposure to 1 mM NMDA at 37° C. Based on manual observations at the time of validation of this technique, this NMDA exposure routinely produced near complete neuronal death in each culture but had no effect on surrounding glia (also see (Bruno et al., 1994; David et al., 1996; Sattler et al., 1997)). Adding Triton X-100 (0.1%) to cultures treated in this manner produced an additional 10-15% increase in PI fluorescence due to permeabilization of non-neuronal cell membranes, consistent with a 10-15% glial component in the cultures.
All experiments were performed at 37° C. Unless otherwise indicated, all solutions contained nimodipine (2 μM) and CNQX (10 μM) to restrict the actions of applied NMDA to NMDARs by preventing the secondary activation of other pathways (Sattler et al., 1998). In general, the cultures were washed ×2 with control solution and immediately stretched to 130% of their original length for 1 s. After the stretch, they were washed ×1 with control solution alone or challenged with an additional treatment (e.g., NMDA) and placed at 37° C. for 1 h. They were then washed ×1 with control solution and then with control solution containing 50 μg/ml PI to obtain a baseline reading. In pilot studies, baseline readings obtained at this stage were similar to those obtained by staining the cells with PI prior to stretch. As the stretch causes splashing of the bath solution, staining with PI after stretch reduced biohazard potential and artifacts associated with PI outside the culture well. Unstretched controls were manipulated identically to stretched cultures.

Data set [4] is described as follows: Physiological variables in pre-treatment MCAO study. Type of data set: in vivo, Sprague-Dawley rats. Here is the method:
Next, I examined whether pretreatment with Tat-peptides would reduce stroke damage. Experiments were carried out in adult male Sprague-Dawley rats subjected to transient middle cerebral artery occlusion (MCAO) for 90 minutes by the intraluminal suture method (36,37). Animals were fasted overnight and injected with atropine sulfate (0.5 mg/kg IP). After 10 minutes anesthesia was induced with 3.5% halothane in a mixture of nitrous oxide and oxygen (Vol. 2:1) and maintained with 0.8% halothane. Rats were orally intubated, mechanically ventilated, and paralyzed with pancuronium bromide (0.6 mg/kg IV). Body temperature was maintained at 36.5-37.5° C. with a heating lamp. Polyethylene catheters in the femoral artery and vein were used to continuously record blood pressure and to sample blood for gas and pH measurements. […] This produces an extensive infarction encompassing the cerebral cortex and basal ganglia. […] Physiological parameters (body temperature, blood pressure, blood gases) were monitored and maintained throughout the experiment (Table 1). All experimental manipulations and analyses of data were performed by individuals blinded to the treatment groups. The extent of cerebral infarction was measured 24 h after MCAO onset (FIG. 7C inset). The postural reflex test (38), and the forelimb placing test (39) were used to grade neurological function on a scale of 0 to 12 (normal=0; worst=12) during MCAO (at 50 minutes) and 24 h thereafter.

The test system of data set [5] is cultured cortical neurons. Description: NMDA excitotoxicity in cultured cortical neurons (propidium iodide fluorescence). Format: cell-based, mouse.
Data set [6] deals with cortical neuronal cultures. Description: DNA fragmentation assays (TUNEL, DNA gel electrophoresis). Format: cell-based, mouse. The note with it: 20 h post-insult; 200 μM MnTBAP or 100 μM L-NAME. The text has this: DNA fragmentation was examined using the terminal deoxynucleotidyl transferase-mediated end nick labeling (TUNEL) method (Gavrieli et al., 1992; Didenko and Hornsby, 1996; Didenko et al., 1998) and by DNA agarose gel electrophoresis (Hill et al., 2000).
TUNEL Assay: Nuclear DNA strand breaks were detected by enzymatically labeling free 3′-OH termini with modified nucleotides provided in the Apoptag kit (Intergen) using the manufacturer's instructions. Visualization of TUNEL-stained nuclei was achieved using an anti-digoxigenin antibody conjugated to a fluorescein or peroxidase reporter molecule (ApopTag Peroxidase Kits S7110 and S7100, respectively, Intergen). In fluorescence experiments, nuclei were counterstained using 5 ng/ml Hoechst 33258 (1:5000, Transduction Labs), and visualized using 465-495 nm excitation and 515-555 nm emission for fluorescein and 340 nm excitation and 510-40 nm emission for Hoechst. The number of TUNEL positive cells was expressed as a fraction of the total cell number in the field. In each culture, 4-8 random fields were quantified. Approximately 100-200 cells were counted per culture, and at least 3 experiments were performed for each set of counts.
DNA Gel Electrophoresis: DNA laddering was evaluated as described elsewhere (Hill et al., 2000). In brief, all tissue was collected from each culture well and pelleted by centrifugation (1000 rpm; 1 min). The cells were digested for 2 h at 56° C. in buffer containing (in mM) 10 Tris pH 8.0, 2 EDTA pH8, 400 NaCl, 0.5% SDS, 1 mg/ml proteinase K. Digest solution was subjected to phenol/chloroform extraction and total DNA was precipitated from the aqueous layer with an equal volume of 100% ethanol. The DNA pellet was dried, dissolved in 50 μl ddH20 and kept overnight at 4° C. 10 μg DNA was prepared on a 2% agarose gel. Gels were stained with ethidium bromide and photographed.

Residues, ends and D or L forms follow the SMILES beside them. No end group written: not given here. *: point of attachment. Cbz = O=C(OCc1ccccc1)*

Consider “YGRKKRRQRRRKLSSIEADA [Tat-NR2B-AA, reference compound]”, for which the “Mean (SE) core temperature during surgery” value in data set [1] was 37.2 (∀0.2). In addition, in data set [1], the “Mean (SE) core temperature subsequent to surgery” value is 37.3 (∀0.1). The “Mean (SE) systolic blood pressure during surgery” value in data set [1] was 109 (∀5.9). Besides, the “Mean (SE) systolic blood pressure prior to surgery” value in data set [1] was 113 (∀8.8). Moreover, the “Mean (SE) systolic blood pressure subsequent to surgery” value in data set [1] was 115 (∀5.9). The “Mean (SE) core temperature prior to surgery” value in data set [1] (drug i.v. 3 hours after onset of ischemia) is listed as 36.9 (∀0.1). For the same molecule, the “Body Temperature” value in data set [2] (After MCAo (15 min)) turned out to be 36.9 ± 0.23 °C; in data set [2] (After MCAo (24 hr)), 36.7 ± 0.27 °C; in data set [2] (Before MCAo(15 min)), 36.7 ± 0.07 °C; in data set [2] (During MCAo (15 min)), 36.7 ± 0.11 °C; in data set [2] (During MCAo (60 min)), 37.0 ± 0.31 °C; in data set [2] (During MCAo (65 min)), 37.0 ± 0.29 °C. The “Body Temperature” value amounted to 36.8 ± 0.08 °C in data set [4] (After MCAo (15 min)); 37.0 ± 0.25 °C in data set [4] (After MCAo (24 hr)); 36.6 ± 0.15 °C in data set [4] (Before MCAo(15 min)); 36.5 ± 0.12 °C in data set [4] (Before MCAo(30 min)); 36.7 ± 0.17 °C in data set [4] (Before MCAo(45 min)); 36.6 ± 0.17 °C in data set [4] (During MCAo (5 min)). Also, the “Body Temperature” value in data set [4] (During MCAo (15 min)) came to 36.7 ± 0.15 °C. Also, the MABP in data set [2] (After MCAo (15 min)) turned out to be 116 ± 4 mmHg; in data set [2] (Before MCAo(15 min)), 103 ± 6 mmHg; in data set [2] (During MCAo (15 min)), 121 ± 5 mmHg; in data set [2] (During MCAo (60 min)) it was 149 ± 4 mmHg; in data set [2] (During MCAo (65 min)), 136 ± 5 mmHg; in data set [4] (Before MCAo(15 min)), 115 ± 5 mmHg. For the same molecule, the MABP is on record as 110 ± 4 mmHg in data set [4] (Before MCAo(30 min)), 115 ± 5 mmHg in data set [4] (Before MCAo(45 min)), 135 ± 7 mmHg in data set [4] (During MCAo (5 min)) and 111 ± 6 mmHg in data set [4] (During MCAo (15 min)). The Body weight worked out at 276 ± 6 g in data set [2] (After MCAo (24 hr)), 301 ± 5 g in data set [2] (Before anesthesia), 244 ± 6 g in data set [4] (After MCAo (24 hr)) and 273 ± 7 g in data set [4] (Before anesthesia). For the same molecule, the “Blood gases PCO2” value amounted to 37.9 ± 1.1 mmHg in data set [2] (Before MCAo(15 min)), 48.0 ± 1.2 mmHg in data set [2] (During MCAo (15 min)), 39.1 ± 1.4 mmHg in data set [4] (Before MCAo(30 min)) and 39.6 ± 0.5 mmHg in data set [4] (During MCAo (5 min)). Moreover, the “Blood gases PH” value in data set [2] (Before MCAo(15 min)) was 7.45 ± 0.01; in data set [2] (During MCAo (15 min)) it was 7.46 ± 0.01; in data set [4] (Before MCAo(30 min)), 7.44 ± 0.02; in data set [4] (During MCAo (5 min)), 7.44 ± 0.02. Moreover, the “Blood gases PO2” value in data set [2] (Before MCAo(15 min)) is given as 113 ± 4 mmHg; in data set [2] (During MCAo (15 min)), 108 ± 2 mmHg; in data set [4] (Before MCAo(30 min)) it was 110 ± 7 mmHg; in data set [4] (During MCAo (5 min)), 109 ± 4 mmHg. The “toxic effects in control or stretched cultures” value in data set [3] (50 nM) was “no toxic effects”.

`COC(=O)[C@@H](N)CCCNC(=N)N[N+](=O)[O-]` [L-NAME, N^G-nitro-L-arginine methyl ester]: the “protection against NMDA toxicity” value in data set [5] (cultured cortical neurons) is on record as “protected”. Besides, in data set [6], the “DNA laddering after stretch followed by NMDA” value was “virtually abolished” and the “TUNEL staining after stretch followed by NMDA” value was “virtually abolished”. Moreover, in data set [3] (100 μM, 30 min preincubation), the “enhanced vulnerability of stretched neurons to NMDA” value is “completely eliminated the enhanced vulnerability” and the “toxicity of 30 μM NMDA in unstretched neurons” value is given as “reduced the toxicity”.

With `CC(C)[C@H](NC(=O)OCc1ccccc1)C(=O)N[C@H](C=O)Cc1ccccc1` [Calpain inhibitor III, z-val-phe-CHO] (Cbz-Val-Phe-aldehyde), in data set [3] (10 μM), the “heightened vulnerability of stretched neurons to NMDA” value is recorded as “not reduced” and the “toxic effects in control or stretched cultures” value is listed as “no toxic effects”. For the same molecule, the “protection of cells challenged with 30 μM or 1 mM NMDA” value in data set [3] (10 μM, whether or not stretched) was “slightly protected”.

B1: pTat-GK: Tat fusion protein containing residues 534-724 of PSD-95, guanylate-kinase homology domain; control (protein)
chain: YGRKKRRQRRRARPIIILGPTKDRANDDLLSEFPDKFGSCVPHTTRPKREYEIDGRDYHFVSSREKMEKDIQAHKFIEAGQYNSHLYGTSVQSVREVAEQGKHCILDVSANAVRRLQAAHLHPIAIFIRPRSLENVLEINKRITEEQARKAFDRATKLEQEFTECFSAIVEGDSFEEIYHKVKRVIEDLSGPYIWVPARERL
modifications: left off: small tags and cut ends
notes: Tat fusion protein containing residues 534-724 of PSD-95, guanylate-kinase homology domain; control
Take B1: the “NMDA-evoked cell death, pre-treatment” value in data set [5] (50 nM for 1 h, then NMDA 0-100 μM 1 h, 20 h observation) is on record as “had no effect”. For the same molecule, the “enhanced cell mortality in stretched neurons by NMDA challenge, post-treatment” value in data set [3] (50 nM applied after terminating the 1 h NMDA challenge) is on record as “ineffective”.

Source of the values: patent publication US8071548B2, “Method of reducing injury to mammalian cells” (Nono, Inc., priority 2002, dated 2011).
